According to paper PMC3002971, “A Universal Approach to Eliminate Antigenic Properties of Alpha-Gliadin Peptides in Celiac Disease” (PLoS ONE, 2010):

Assays:
[1] = test system: DQ2-Glia-α1 specific T cell clones; assay: T cell proliferation assay, DQ2-Glia-α1 specific T cell clone; format: cell-based, human; set-up: key: ± = 100 times reduced T cell stimulation compared to the ‘canonical’ epitope; - = 1000 times reduced T cell stimulation compared to the ‘canonical’ epitope; details: 3H-thymidine proliferation, triplicate; deamidated 14- to 17-mer peptides, antigen 1–10 µg/ml; stimulation compared to canonical epitope
Experimental: (§1) Gluten specific T cell clones were generated from small intestinal biopsies of celiac disease patients as described before, [11], [12]. All patients signed an informed consent form which was approved by the hospital ethics committee. Proliferation assays were performed in triplicate in 150 µl Iscove's Modified Dulbecco's Medium (Bio Whittaker, Verviers, Belgium) with 10% pooled normal human serum in 96 well flat-bottom plates using 2×10^4 gluten specific T cells stimulated with […] irradiated HLA-DQ2-matched allogeneic peripheral blood mononuclear cells (3000 rad) in the presence or absence of antigen (1–10 µg/ml), [11], [12]. After 2 days ^3H-thymidine (0.5 µCi/well) was added to the cultures, and 18–20 hours thereafter the cells were harvested. ^3H-thymidine incorporation in the T cell DNA was determined with a liquid scintillation counter (1205 Betaplate Liquid Scintillation Counter, LKB Instruments, Gaithersburg, MD). A binding assay was performed as described previously.

[2] = test system: DQ2-Glia-α2 specific T cell clones; assay: T cell proliferation assay, DQ2-Glia-α2 specific T cell clone; format: cell-based, human; set-up: key: ± = 100 times reduced T cell stimulation compared to the ‘canonical’ epitope; - = 1000 times reduced T cell stimulation compared to the ‘canonical’ epitope; details: 3H-thymidine proliferation, triplicate; deamidated 14- to 17-mer peptides, antigen 1–10 µg/ml; stimulation compared to canonical epitope
Experimental: as §1

DQ8-Glia-α1 T cell clone = assay: T cell proliferation assay, DQ8-Glia-α1 T cell clone; format: cell-based, human; set-up: key: ± = 100 times reduced T cell stimulation compared to the ‘canonical’ epitope; - = 1000 times reduced T cell stimulation compared to the ‘canonical’ epitope; details: 3H-thymidine proliferation, triplicate; deamidated peptides, antigen 1–10 µg/ml; stimulation compared to canonical epitope
Experimental: as §1

T cell = details: cited from earlier work
Excerpt: Many gluten peptides with T cell stimulatory properties have now been identified. Such peptides have been found in wheat α-, γ-, and ω-gliadins as well as in low molecular weight (LMW) and high molecular weight (HMW) glutenins [8]–[14]. […] An α-gliadin derived 33-mer peptide (amino acid sequence […]) was identified that encodes six partially o ...

[3] = cited from earlier work
Excerpt: In addition to the canonical epitope motifs, a large series of sequence variants with one or two amino acid substitutions were detected ( Tables 2 , 3 , 4 , 5 ). The large majority of the Gli-B2 gliadins contained sequence variants of the DQ2-Glia-α1, DQ2-Glia-α2, and DQ2-Glia-α3 epitopes with two amino acid substitutions. Furthermore, Gli-A2 transcripts harbored a proline to serine substitution at position 8 (p8) of the DQ2-Glia-α2 epitope and a sequence variant (QGSFRP(S/F)QQN, amino acid substitution in bold) of the DQ8-Glia-α1 epitopes. Importantly, the 33-mer peptide ([…] ...

## QPQPFP-PELPYPQTQP [Peptide 15]
[1]
  Glia-α1 T cell clone: -
[2]
  Glia-α2 T cell clone: -

## LGEGFFQPSQENP [Peptide 20]
DQ8-Glia-α1 T cell clone
  DQ8-Glia-α1 T cell clone: -

## LQLQPFPQPQLPYPQPQLPYPQPQLPYPQPQPF [33-mer peptide]
T cell
  T cell stimulatory properties: very potent T cell stimulatory properties
[3]
  resistance to degradation in the gastrointestinal tract: highly resistant to degradation
